# Article PMC9736157 (Molecules, 2022)
# Where two headings read alike, the source gives them in different places.
# Assays:
# A375 melanoma cell line = test: Antiproliferative activity, CellTiter-Glo, A375; type: cell-based; conditions: Homo sapiens, A-375, A375, 72 h
# Protocol: Based on the previous preliminary tests, we sought to investigate the ability of synthesized compounds 5–15 and reference 1 in inhibiting the proliferation of BRAF^V600E mutant cancer cells. A first screening was conducted in A375 melanoma cell lines (Table 1, Figure S2). Encorafenib was employed for comparison.
# (§1) The ability of compounds 5, 10, 11, 15–selected based on their chemical diversity–to inhibit cell proliferation was then tested both in A375 and in Colo205 cancer cell lines. […] P5B was obtained by joining the BRAF inhibitor BI 882370 to pomalidomide through a five PEG unit spacer (Figure S3). In compound P5B, the linker length was of 17 atoms, the same length of the spacer used to generate our compound 10. A375 and Colo205 cells were treated for 72 h with compounds 5, 10, 11, 15, and P5B, and the antiproliferative activity was measured by a luminescent ATP-based assay, which determines the number of viable cells based on their metabolic activity. […] However, P5B was more efficient in inhibiting tumor cell viability in comparison with the other selected compounds.
# (§2) Cell viability was evaluated by means of CellTiter-Glo Luminescent Assay (Promega), which allows users to measure the ATP in the cell supernatant. The assay was performed according to manufacturer’s instructions. In brief, 4.10^3 A375 or Colo205 were seeded into 96-well plates and allowed to adhere at the wall overnight. Cells were treated for 72 h with BRAF inhibitor compounds. Then, 90 µL of the cell culture medium was transferred in a white 96-well plate, to which 10 µL of CellTiter-Glo was added before measurement of luminescence. Luminescence was measured by the SPARK M10 (Tecan, Männedorf, Switzerland) plate reader.
# B-RAF (V600E) = target: T1, B-RAF (V600E) (Homo sapiens, UniProt P15056, V600E); test: BRAF^V600E inhibition assay (B-RAF (V600E) Kinase Assay Kit, Kinase-Glo MAX); type: biochemical; conditions: isolated BRAF^V600E, ATP 10 μM, 30 °C, 45 min; three experiments in duplicate; read-out: BRAF (V600E) Kinase Activity IC50 (nM ± SEM)
# T1 construct: purchased BPS Bioscience
# Protocol: In a 96-well plate, the different inhibitor solutions in DMSO were mixed with Buffer, ATP (10 μM) and Raf substrate. […] After a 15 min delay to equilibrate plate temperature, 50 μL of Kinase-Glo Max was added in each well, and the luminescence was measured according to supplier’s instruction. The results, reported as IC50 ± S.E.M., were calculated with GrapPad Prism 7 and derive from three different experiments run in duplicate.
# [1] = Stability in RPMI cell medium; type: in vitro ADME; conditions: RPMI cell culture medium with 10% FBS, RPMI with 10% FBS, 37 °C
# Protocol: (§3) Stability of compounds was determined in RPMI medium and in human serum. DMSO stock solutions of compounds (10 mM) was added to RPMI (Sigma–Aldrich, Darmstadt, Germany) competed with 10% fetal bovine serum (FBS) plus 2 mM glutamine, penicillin (100 IU/mL), and streptomycin (100 μγ/mL; Sigma–Aldrich, Darmstadt, Germany) or to human serum (sterile-filtered from human male AB plasma, Sigma–Aldrich, Darmstadt, Germany), to obtain the 100 μM final concentration with 1% of DMSO. The resulting solutions were incubated at 37 °C for 48 h. At appropriate time intervals (0, 1, 5, 24 and 48 h), 300 µL of the reaction mixture was withdrawn and added to 300 µL of acetonitrile 0.1% TFA. The samples were vortexed, sonicated for 3 min and then centrifuged for 5 min at 2500× g. The clear supernatant was filtered through a PTFE 0.45 μm filter (VWR) and analyzed by RP-HPLC. Each experiment was independently repeated at least three times, and results are expressed as a percentage of unmodified compound over time. The half-life was determined by fitting the data with a one phase exponential decay equation (Graph Pad, Prism software vr. 5, GraphPad Software Inc., San Diego, CA, USA). […]
# (§4) The column effluent was monitored at 226 and 300 nm, referenced against a 800 nm wavelength. […] Quantitation of compounds was obtained by calibration curves (linearity determined in a concentration range of 1–100 µM, r^2 > 0.99).
# Stability in human serum = type: in vitro ADME; conditions: male, 37 °C
# Protocol: as §3, §4
# Colo205 cells = test: Cell permeability in Colo205 cells; type: in vitro ADME; conditions: Colo205 cells (Table S1)
# [2] = system: phosphorylation of MEK and ERK; test: Western blot, BRAF signaling in Colo205; type: cell-based; conditions: Colo205, 24 h incubation
# Protocol: (§5) Finally, we investigated the capability of the most antiproliferative compounds in interfering with BRAF pathway, favoring target degradation. To this end, Western blot analysis was conducted 24 h after incubation with 10 and 11 in both A375 and Colo205 cell lines. […] This observation was consistent with their ability to inhibit BRAF^V600E.
# (§6) To measure the capability of our compounds to interfere with BRAF pathway, pre-treated A375 and Colo205 cells were lysed. […] The total protein amount was determined using the bicinchoninic acid (BCA) protein assay reagent (Thermo Scientific, Waltham, MA, USA). […] Proteins were then transferred from gel to nitrocellulose with a Trans-Blot Turbo transfer system (Biorad, Hercules, CA, USA), probed with goat anti-rabbit IgG (H+L) secondary antibody, HRP conjugate (Invitrogen) or goat anti-mouse IgG (H+L) secondary antibody, HRP conjugate (Jackson ImmunoResearch Inc., Langcaster, PA, USA), and detected using enhanced chemiluminescence technique (Western Lightning Plus-ECL, Enhanced Chemiluminescence Substrate; Perkin Elmer, catalog # NEL105001EA, Waltham, MA, USA).
# [3] = system: phosphorylation of MEK and ERK; test: Western blot, BRAF signaling in A375; type: cell-based; conditions: A375, 24 h incubation
# Protocol: as §5, §6
# Colo205 cell line = test: Antiproliferative activity, CellTiter-Glo, Colo205; type: cell-based; conditions: Homo sapiens, COLO 205; Colo205, 72 h (Figure 6b); read-out: Antiproliferative activity IC50 (nM ± SEM)
# Protocol: as §1, §2
# BRAF^V600E [4] = system: T2, BRAF^V600E; test: Western blot, BRAF^V600E degradation in Colo205; type: cell-based
# T2 construct: endogenous in cells; host or cells: A375 and Colo205 cell lines
# Protocol: as §5
# (§7) To measure the capability of our compounds to interfere with BRAF pathway, pre-treated A375 and Colo205 cells were lysed. We then performed protein analysis through Western blot by using the following primary antibodies: anti-phospho ERK 1/2 (clone E10; dilution 1:1000; Cell Signaling Technology, Danvers, MA, USA) and anti-ERK (clone 137F5; dilution 1:1000; Cell Signaling Technology); anti-phospho MEK (clone S217/221; dilution 1:1000; Cell Signaling Technology); anti-MEK1,2 (clone 9122; dilution 1:1000; Cell Signaling Technology); anti-BRAF v600e (dilution 1:1000; Abcam, Cambridge, UK); and anti-total BRAF (dilution 1:1000; ThermoFisher, Waltham, MA, USA). Vinculin (clone E1E9B; dilution 1:1000; Cell Signaling Technology) was used as a loading control. The total protein amount was determined using the bicinchoninic acid (BCA) protein assay reagent (Thermo Scientific, Waltham, MA, USA). Equivalent amounts of protein were separated by SDS–PAGE on precast Bolt 4–12% Bis-Tris gel (Invitrogen, Carlsbad, CA, USA). Proteins were then transferred from gel to nitrocellulose with a Trans-Blot Turbo transfer system (Biorad, Hercules, CA, USA), probed with goat anti-rabbit IgG (H+L) secondary antibody, HRP conjugate (Invitrogen) or goat anti-mouse IgG (H+L) secondary antibody, HRP conjugate (Jackson ImmunoResearch Inc., Langcaster, PA, USA), and detected using enhanced chemiluminescence technique (Western Lightning Plus-ECL, Enhanced Chemiluminescence Substrate; Perkin Elmer, catalog # NEL105001EA, Waltham, MA, USA).
# BRAF^V600E [5] = system: T2, BRAF^V600E; test: Western blot, BRAF^V600E degradation in A375; type: cell-based
# Protocol: as §5, §7
# [6] = first screening (Table 1), read-out: Antiproliferative Activity IC50 ± SEM
# T1 sequence (P15056 whole entry V600E): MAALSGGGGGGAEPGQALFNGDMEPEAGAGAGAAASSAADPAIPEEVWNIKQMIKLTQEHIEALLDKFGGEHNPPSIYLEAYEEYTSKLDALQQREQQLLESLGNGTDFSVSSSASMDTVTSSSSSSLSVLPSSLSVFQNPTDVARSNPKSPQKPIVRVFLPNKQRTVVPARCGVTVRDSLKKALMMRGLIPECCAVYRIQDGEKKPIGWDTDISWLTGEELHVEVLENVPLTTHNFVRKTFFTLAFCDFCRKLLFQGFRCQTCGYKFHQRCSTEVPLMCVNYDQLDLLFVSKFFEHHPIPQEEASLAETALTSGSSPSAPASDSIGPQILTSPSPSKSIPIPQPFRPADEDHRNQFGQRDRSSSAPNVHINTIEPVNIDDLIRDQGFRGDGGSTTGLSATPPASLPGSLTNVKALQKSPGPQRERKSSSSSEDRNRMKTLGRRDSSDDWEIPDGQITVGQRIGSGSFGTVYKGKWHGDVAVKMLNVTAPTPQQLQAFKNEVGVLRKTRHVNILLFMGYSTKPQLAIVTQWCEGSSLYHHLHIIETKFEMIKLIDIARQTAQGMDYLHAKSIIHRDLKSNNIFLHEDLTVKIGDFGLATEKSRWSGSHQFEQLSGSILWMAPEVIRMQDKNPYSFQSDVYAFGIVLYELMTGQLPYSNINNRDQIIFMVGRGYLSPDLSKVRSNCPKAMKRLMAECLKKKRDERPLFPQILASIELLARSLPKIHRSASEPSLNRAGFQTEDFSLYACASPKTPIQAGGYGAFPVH
SMILES,IC50 (A375 melanoma cell line; [6]) [nM],IC50 (B-RAF (V600E)) [nM],half-life at 100 μM [1] [h],half-life at 100 μM (Stability in human serum) [h],cell permeability (Colo205 cells),phosphorylation of MEK and ERK [2],"IC50 (A375 melanoma cell line; second set of experiments (Figure 6a), read-out: Antiproliferative activity IC50 (nM ± SEM)) [nM]",phosphorylation of MEK and ERK [3],IC50 (Colo205 cell line) [nM],"BRAF^V600E degradation (BRAF^V600E [4]; Colo205, 24 h, 100–500 nM)","BRAF^V600E degradation at higher concentration (BRAF^V600E [4]; Colo205, up to 10 µM (Figure S4))","BRAF^V600E degradation (BRAF^V600E [5]; A375, 24 h, 100–500 nM)","BRAF^V600E degradation at higher concentration (BRAF^V600E [5]; A375, up to 10 µM (Figure S4))"
"CC(C)n1cc(-c2ccnc(NC[C@H](C)NC(=O)CCOCCOCCOCCNc3cccc4c3C(=O)N(C3CCC(=O)NC3=O)C4=O)n2)c(-c2cc(Cl)cc(NS(C)(=O)=O)c2F)n1 (stereo partly drawn) [Compound 8, N-((S)-1-((4-(3-(5-chloro-2-fluoro-3-(methylsulfonamido)phenyl)-1-isopropyl-1H-pyrazol-4-yl)pyrimidin-2-yl)amino)propan-2-yl)-3-(2-(2-(2-((2-(2,6-dioxopiperidin-3-yl)-1,3-dioxoisoindolin-4-yl)amino)ethoxy)ethoxy)ethoxy)propanamide]",1760 ± 287,57 ± 7,21,24,ability to reach the cytosolic compartment,,,,,,,,
"CC(C)n1cc(-c2ccnc(NC[C@H](C)NC(=O)CCOCCOCCOCCOCCOCCNc3cccc4c3C(=O)N(C3CCC(=O)NC3=O)C4=O)n2)c(-c2cc(Cl)cc(NS(C)(=O)=O)c2F)n1 (stereo partly drawn) [Compound 10, N-((S)-1-((4-(3-(5-chloro-2-fluoro-3-(methylsulfonamido)phenyl)-1-isopropyl-1H-pyrazol-4-yl)pyrimidin-2-yl)amino)propan-2-yl)-1-((2-(2,6-dioxopiperidin-3-yl)-1,3-dioxoisoindolin-4-yl)amino)-3,6,9,12,15-pentaoxaoctadecan-18-amide]",132 ± 1.95,75 ± 17,19,23,,able to decrease phosphorylation of MEK and ERK,194 ± 36,able to decrease phosphorylation of MEK and ERK,31 ± 10,not able to induce BRAF^V600E degradation,no degradation of the target protein,not able to induce BRAF^V600E degradation,no degradation of the target protein
